pIC50: −log10 of the molar value. A value given as a limit tells only on which side of the number the result lay.

Chain of Pol theta (1-899) (O75417 1-899): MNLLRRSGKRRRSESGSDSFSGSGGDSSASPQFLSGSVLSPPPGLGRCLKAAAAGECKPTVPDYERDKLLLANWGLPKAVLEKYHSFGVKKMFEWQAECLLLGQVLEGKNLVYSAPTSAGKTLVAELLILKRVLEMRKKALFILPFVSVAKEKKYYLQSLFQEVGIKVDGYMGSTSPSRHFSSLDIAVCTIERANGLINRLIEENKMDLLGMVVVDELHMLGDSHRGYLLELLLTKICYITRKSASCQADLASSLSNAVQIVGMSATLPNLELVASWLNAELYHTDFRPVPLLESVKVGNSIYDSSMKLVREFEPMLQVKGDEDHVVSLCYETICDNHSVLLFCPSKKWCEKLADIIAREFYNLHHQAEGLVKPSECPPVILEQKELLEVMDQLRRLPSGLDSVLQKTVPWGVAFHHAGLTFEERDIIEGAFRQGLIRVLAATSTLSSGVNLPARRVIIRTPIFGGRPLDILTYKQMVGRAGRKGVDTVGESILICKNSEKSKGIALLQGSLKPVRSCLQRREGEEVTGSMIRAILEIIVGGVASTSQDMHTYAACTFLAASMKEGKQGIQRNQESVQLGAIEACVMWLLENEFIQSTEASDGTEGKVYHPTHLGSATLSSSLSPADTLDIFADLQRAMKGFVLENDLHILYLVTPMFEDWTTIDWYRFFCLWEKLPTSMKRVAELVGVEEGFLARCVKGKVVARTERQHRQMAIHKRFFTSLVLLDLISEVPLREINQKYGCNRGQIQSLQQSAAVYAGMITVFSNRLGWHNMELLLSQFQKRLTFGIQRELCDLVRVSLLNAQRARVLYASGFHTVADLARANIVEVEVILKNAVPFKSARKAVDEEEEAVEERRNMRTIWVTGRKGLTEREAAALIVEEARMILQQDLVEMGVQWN

In this assay the target is Pol theta (1-899) (Homo sapiens (Human), UniProt O75417). Briefly: Pol theta ATPase activity, NADH oxidation-coupled enzymatic assay. As to conditions: Pol theta (1-899) 10 nM, ATP, dT50 ssDNA, absorbance 340 nm, 10-point dilution series; read-out: ATPase NADH coupling:Standard Screening:hPolQ IC50. Type of assay: biochemical. The method, boiled down:
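Pol theta (1-899), 10 nM, preincubated 15 min at RT with 10-point compound series in Tris pH 7.80/KCl/MgCl2 buffer, then given 100 μM ATP plus 300 nM dT50 ssDNA with PK/LDH-coupled NADH oxidation. A340 followed for 30 min; rate slopes fitted with a four-parameter model for IC50.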
For `CN(C)C(=O)N1CCN(c2ncccc2C(=O)Nc2nnc(OCc3ccc(Cl)cc3)s2)CC1` [Example 28, 4-(3-((5-((4-chlorobenzyl)oxy)-1,3,4-thiadiazol-2-yl)carbamoyl)pyridin-2-yl)-N,N-dimethylpiperazine-1-carboxamide], the pIC50 is 5.00 to 6.00. In the case of `O=C(Nc1nnc(OCc2ccc(Cl)cn2)s1)c1cncn1-c1ccccn1` [Example 38, N-(5-((5-chloropyridin-2-yl)methoxy)-1,3,4-thiadiazol-2-yl)-1-(pyridin-2-yl)-1H-imidazole-5-carboxamide] it was 5.00 to 6.00; in that of `COc1ccccc1-c1cnccc1C(=O)Nc1nnc(OCc2ccc(Cl)c(Cl)c2)s1` [Example 158, N-[5-[(3,4-dichlorophenyl)methoxy]-1,3,4-thiadiazol-2-yl]-3-(2-methoxyphenyl)pyridine-4-carboxamide], at least 6.70.

For the compound `N#Cc1ccc(OC(F)F)c(-c2cnccc2C(=O)Nc2nnc(OCc3ccc(Cl)cc3)s2)c1` [Example 108, N-(5-((4-chlorobenzyl)oxy)-1,3,4-thiadiazol-2-yl)-3-(5-cyano-2-(difluoromethoxy)phenyl)isonicotinamide], the pIC50 is at least 6.70. In the case of `O=C(Nc1nnc(OCc2ccc(Cl)cc2)s1)c1ccncc1-c1ccccc1CCO` [Example 171, N-(5-((4-chlorobenzyl)oxy)-1,3,4-thiadiazol-2-yl)-3-(2-(2-hydroxyethyl)phenyl)isonicotinamide], the pIC50 was at least 6.70. The figure for `O=C(Nc1nnc(OCc2ccc(Cl)cc2)s1)c1ccncc1-c1ccccc1OC(F)F` [Example 100, N-(5-((4-chlorobenzyl)oxy)-1,3,4-thiadiazol-2-yl)-3-(2-(difluoromethoxy)phenyl)isonicotinamide] is at least 6.70. The figure for `O=C(Nc1nnc(OCc2ccc(Cl)cc2)s1)c1ccncc1N1CCOCC1` [Example 59, N-(5-((4-chlorobenzyl)oxy)-1,3,4-thiadiazol-2-yl)-3-morpholinoisonicotinamide] is 6.30 to 6.70. In the case of `CC(=O)Nc1cc(N2CCOCC2)c(C(=O)Nc2nnc(OCc3ccc(Cl)cc3)s2)cn1` [Example 78, 6-acetamido-N-(5-((4-chlorobenzyl)oxy)-1,3,4-thiadiazol-2-yl)-4-morpholinonicotinamide] it was 5.00 to 6.00. For the compound `COc1ccccc1-c1ccncc1C(=O)Nc1nnc(OCc2ccc(Br)cn2)s1` [Example 97, N-(5-((5-bromopyridin-2-yl)methoxy)-1,3,4-thiadiazol-2-yl)-4-(2-methoxy-phenyl)nicotinamide], the negative-log IC50 (pIC50) is at least 6.70. For the compound `CNC(=O)c1cc(N2CCNC(=O)CC2)c(C(=O)Nc2nnc(OCc3ccc(Cl)cc3)s2)cn1` [Example 87, N^5-(5-((4-chlorobenzyl)oxy)-1,3,4-thiadiazol-2-yl)-N2-methyl-4-(5-oxo-1,4-diazepan-1-yl)pyridine-2,5-dicarboxamide], the pIC50 is 6.00 to 6.30.

For the compound `COc1c(CO)cccc1-c1cc(C)ncc1C(=O)Nc1nnc(OCc2ccc(Cl)cn2)s1` [Example 195, N-[5-[(5-chloropyridin-2-yl)methoxy]-1,3,4-thiadiazol-2-yl]-4-[3-(hydroxymethyl)-2-methoxyphenyl]-6-methylpyridine-3-carboxamide], the pIC50 is at least 6.70. The figure for `COc1ccc(-n2cncc2C(=O)Nc2nnc(OCc3ccc(Cl)cc3)s2)cc1` [Example 12, N-(5-((4-chlorobenzyl)oxy)-1,3,4-thiadiazol-2-yl)-1-(4-methoxyphenyl)-1H-imidazole-5-carboxamide] is 6.30 to 6.70; for `O=C(Nc1nnc(OCc2ccc(Cl)cc2)s1)c1ccncc1-c1cccc2c1OC(F)(F)O2` [Example 121, N-(5-((4-chlorobenzyl)oxy)-1,3,4-thiadiazol-2-yl)-3-(2,2-difluorobenzo[d][1,3]dioxol-4-yl)isonicotinamide] it is at least 6.70; for `O=C(Nc1nnc(OCc2ccc(Cl)cn2)s1)c1cccnc1N1CCS(=O)(=O)CC1` [Example 37, N-(5-((5-chloropyridin-2-yl)methoxy)-1,3,4-thiadiazol-2-yl)-2-(1,1-dioxidothiomorpholino)nicotinamide] it is 5.00 to 6.00. In the case of `COc1cc(C(=O)Nc2nnc(OCc3ccc(Cl)cc3)s2)c(-c2ccccc2OC)cn1` [Example 160, N-(5-((4-chlorobenzyl)oxy)-1,3,4-thiadiazol-2-yl)-2-methoxy-5-(2-methoxyphenyl)isonicotinamide] it was at least 6.70; in that of `Cc1cc(-c2ccccc2OC(F)F)c(C(=O)Nc2nnc(OCc3ccc(C4(C#N)CC4)cn3)s2)cn1` [Example 218, N-(5-[[5-(1-cyanocyclopropyl)pyridin-2-yl]methoxy]-1,3,4-thiadiazol-2-yl)-4-[2-(difluoromethoxy)phenyl]-6-methylpyridine-3-carboxamide], at least 6.70; in that of `COc1ccccc1-n1cncc1C(=O)Nc1nnc(OCc2ccc(C3CC3)cc2)s1` [Example 149, N-(5-((4-cyclopropylbenzyl)oxy)-1,3,4-thiadiazol-2-yl)-1-(2-methoxyphenyl)-1H-imidazole-5-carboxamide], at least 6.70. In the case of `O=C(Nc1nnc(OCc2ccc(Cl)cc2)s1)c1cccnc1N1CCN(CCO)C(=O)C1` [Example 68, N-(5-((4-chlorobenzyl)oxy)-1,3,4-thiadiazol-2-yl)-2-(4-(2-hydroxyethyl)-3-oxopiperazin-1-yl)nicotinamide] it was 5.00 to 6.00.

Consider `Cc1cc(-c2cccc3c2OCCN3)c(C(=O)Nc2nnc(OCc3ccc(Cl)cn3)s2)cn1` [Example 198, N-(5-((5-chloropyridin-2-yl)methoxy)-1,3,4-thiadiazol-2-yl)-4-(3,4-dihydro-2H-benzo[b][1,4]oxazin-8-yl)-6-methylnicotinamide], for which the pIC50 is at least 6.70. The figure for `O=C(Nc1nnc(OCc2ccc(Cl)cc2)s1)c1cccnc1-c1ccccc1Cl` [Example 150, N-(5-((4-chlorobenzyl)oxy)-1,3,4-thiadiazol-2-yl)-2-(2-chlorophenyl)nicotinamide] is 6.30 to 6.70. In the case of `O=C(Nc1nnc(OCc2ccc(Cl)cc2)s1)c1cccnc1C1CCOCC1` [Example 54, N-[5-[(4-chlorophenyl)methoxy]-1,3,4-thiadiazol-2-yl]-2-(oxan-4-yl)pyridine-3-carboxamide] it was 6.00 to 6.30; in that of `N#Cc1cc(N2CCOCC2)c(C(=O)Nc2nnc(OCc3ccc(Cl)cc3)s2)cn1` [Example 35, N-(5-((4-chlorobenzyl)oxy)-1,3,4-thiadiazol-2-yl)-6-cyano-4-morpholinonicotinamide], at least 6.70; in that of `N#Cc1ccccc1-c1cnccc1C(=O)Nc1nnc(OCc2ccc(Cl)cc2)s1` [Example 126, N-(5-((4-chlorobenzyl)oxy)-1,3,4-thiadiazol-2-yl)-3-(2-cyanophenyl)isonicotinamide], at least 6.70. In the case of `N#Cc1ccc(C(=O)Nc2nnc(OCc3ccc(Cl)cn3)s2)c(N2CCOCC2)n1` [Example 32], the pIC50 was 6.30 to 6.70.

Take `O=C(Nc1nnc(OCc2ccc(Cl)cc2)s1)c1cccnc1N1CCOCC1` [Example 2, N-(5-((4-chlorobenzyl)oxy)-1,3,4-thiadiazol-2-yl)-2-morpholinonicotinamide]: the pIC50 is 6.00 to 6.30.

`O=C(Nc1nnc(OCc2ccc(F)cc2)s1)c1cccnc1N1CCOCC1` [Example 1, N-(5-((4-fluorobenzyl)oxy)-1,3,4-thiadiazol-2-yl)-2-morpholinonicotinamide]: the pIC50 was 5.00 to 6.00.

With `O=C(Nc1nnc(OCc2ccc(Cl)cc2)s1)c1cnncc1-c1ccccc1OC(F)F` [Example 112, N-(5-((4-chlorobenzyl)oxy)-1,3,4-thiadiazol-2-yl)-5-(2-(difluoromethoxy)phenyl)pyridazine-4-carboxamide], the negative logarithm of the IC50 (pIC50) was at least 6.70. In the case of `COc1cc(N2CCOCC2)c(C(=O)Nc2nnc(OCc3ccc(Cl)cn3)s2)cn1` [Example 36, N-(5-((5-chloropyridin-2-yl)methoxy)-1,3,4-thiadiazol-2-yl)-6-methoxy-4-morpholinonicotinamide] it was 5.00 to 6.00; in that of `C[C@@H]1COC[C@@H](C)N1c1cnccc1C(=O)Nc1nnc(OCc2ccc(Cl)cn2)s1` [Example 188, N-(5-((5-chloropyridin-2-yl)methoxy)-1,3,4-thiadiazol-2-yl)-3-((3R,5R)-3,5-dimethylmorpholino)isonicotinamide], at least 6.70; in that of `COc1cccc(F)c1-c1cc(C)ncc1C(=O)Nc1nnc(OCc2ccc(Cl)cn2)s1` [Example 184, N-(5-((5-chloropyridin-2-yl)methoxy)-1,3,4-thiadiazol-2-yl)-4-(2-fluoro-6-methoxyphenyl)-6-methylnicotinamide], at least 6.70. The figure for `O=C(Nc1nnc(OCc2ccc(Cl)cc2)s1)c1ccncc1-c1cccc2c1OCCN2` [Example 136, N-[5-[(4-chlorophenyl)methoxy]-1,3,4-thiadiazol-2-yl]-3-(3,4-dihydro-2H-1,4-benzoxazin-8-yl)pyridine-4-carboxamide] is at least 6.70; for `O=C(Nc1nnc(OCc2ccc(Cl)cc2)s1)c1cnccc1-c1ccccc1OC(F)(F)F` [Example 130, N-(5-((4-chlorobenzyl)oxy)-1,3,4-thiadiazol-2-yl)-4-(2-(trifluoromethoxy)phenyl)nicotinamide] it is at least 6.70; for `CN1CCOc2c(-c3cnccc3C(=O)Nc3nnc(OCc4ccc(Cl)cc4)s3)cccc21` [Example 139, N-[5-[(4-chlorophenyl)methoxy]-1,3,4-thiadiazol-2-yl]-3-(4-methyl-2,3-dihydro-1,4-benzoxazin-8-yl)pyridine-4-carboxamide] it is at least 6.70. The figure for `COc1ccccc1-c1cnc(F)cc1C(=O)Nc1nnc(OCc2ccc(Cl)cc2)s1` [Example 148, N-(5-((4-chlorobenzyl)oxy)-1,3,4-thiadiazol-2-yl)-2-fluoro-5-(2-methoxyphenyl)isonicotinamide] is at least 6.70.

By pIC50 is commonly meant the IC50 on a negative log10 scale, so that one unit is a factor of ten.

The record behind these values is patent US12509454B2, “Thiadiazolyl derivatives” (IDEAYA Biosciences, Inc., priority 2019, dated 2025).
